{"source": "patent US20080188481A1", "about": "(priority 2002, published 2008)"}
{"test_system": "HIV-1 single-round infectious reporter virus", "assay": "Single-round infectious HIV-1 luciferase reporter virus infection of HeLa CD4 cells (antiviral EC50)", "assay_type": "cell-based", "details": "Human immunodeficiency virus 1, HeLa, 72 h, read-out: EC50 Group from Table 1", "description": "• Virus production—Human embryonic Kidney cell line, 293T, was propagated in Dulbecco's Modified Eagle Medium (Invitrogen, Carlsbad, Calif.) containing 10% fetal Bovine serum (FBS, Sigma, St. Louis, Mo.). • Virus infection—Human epithelial cell line, HeLa, expressing the HIV-1 receptor CD4 was propagated in Dulbecco's Modified Eagle Medium (Invitrogen, Carlsbad, Calif.) containing 10% fetal Bovine serum (FBS, Sigma, St. Louis, Mo.) and supplemented with 0.2 mg/mL Geneticin (Invitrogen, Carlsbad, Calif.). Virus-Single-round infectious reporter virus was produced by co-transfecting human embryonic Kidney 293 cells with an HIV-1 envelope DNA expression vector and a proviral cDNA containing an envelope deletion mutation and the luciferase reporter gene inserted in place of HIV-1 nef sequences (Chen et al, Ref. 41). Transfections were performed using lipofectAMINE PLUS reagent as described by the manufacturer (Invitrogen, Carlsbad, Calif.).\n• 1. HeLa CD4 cells were plated in 96 well plates at a cell density of 1×10^4 cells per well in 100 μl Dulbecco's Modified Eagle Medium containing 10% fetal Bovine serum and incubated overnight. • 2. Compound was added in a 2 μl dimethylsulfoxide solution, so that the final assay concentration would be ≦10 μM. • 3. 100 μl of single-round infectious reporter virus in Dulbecco's Modified Eagle Medium was then added to the plated cells and compound at an approximate multiplicity of infection (MOI) of 0.01, resulting in a final volume of 200 μl per well. • 4. Virally-infected cells were incubated at 37 degrees Celsius, in a CO2 incubator, and harvested 72 h after infection. • 5. Viral infection was monitored by measuring luciferase expression from viral DNA in the infected cells using a luciferase reporter gene assay kit, as described by the manufacturer (Roche Molecular Biochemicals, Indianapolis, Ind.). Infected cell supernatants were removed and 50 μl of lysis buffer was added per well. After 15 minutes, 50 μl of freshly-reconstituted luciferase assay reagent was added per well. Luciferase activity was then quantified by measuring luminescence using a Wallac microbeta scintillation counter. • 6. The percent inhibition for each compound was calculated by quantifying the level of luciferase expression in cells infected in the presence of each compound as a percentage of that observed for cells infected in the absence of compound and subtracting such a determined value from 100. • 7. An EC50 provides a method for comparing the antiviral potency of the compounds of this invention. The effective concentration for fifty percent inhibition (EC50) was calculated with the Microsoft Excel Xlfit curve fitting software. For each compound, curves were generated from percent inhibition calculated at 10 different concentrations by using a four paramenter logistic model (model 205). Table 1 is the key for the data in Table 2.", "units": {"EC50": "nM"}}
{"smiles": "COc1ncc(OC)c2c(C(=O)C(=O)N3CCC(=C(c4ccccc4)c4cnccn4)CC3)c[nH]c12", "note": "[Example 56]", "EC50": "< 1000"}
{"smiles": "COc1ncc(OC)c2c(C(=O)C(=O)N3CCC(=C(c4ccccc4)c4ccccc4)CC3)c[nH]c12", "note": "[Example 57]", "EC50": "< 1000"}
{"smiles": "COc1cccc(C(=C2CCN(C(=O)C(=O)c3c[nH]c4c(OC)ncc(OC)c34)CC2)c2ccccc2)c1", "note": "[Example 58]", "EC50": "< 1000"}
{"smiles": "COc1ncc(OC)c2c(C(=O)C(=O)N3CCC(=C(c4ccccc4)c4ccc(C#N)cc4)CC3)c[nH]c12", "note": "[Example 59]", "EC50": "< 1000"}
{"smiles": "COc1ncc(OC)c2c(C(=O)C(=O)N3CCC(=C(c4ccccc4)c4c(C)noc4C)CC3)c[nH]c12", "note": "[Example 60]", "EC50": "< 1000"}
{"smiles": "COc1ncc(OC)c2c(C(=O)C(=O)N3CCC(=C(c4ccccc4)c4ncco4)CC3)c[nH]c12", "note": "[Example 61]", "EC50": "< 1000"}
{"smiles": "COc1ccc(C(=C2CCN(C(=O)C(=O)c3c[nH]c4c(OC)ncc(OC)c34)CC2)c2ccccc2)cc1", "note": "[Example 62]", "EC50": "< 1000"}
{"smiles": "COc1ncc(OC)c2c(C(=O)C(=O)N3CCC(=C(c4ccccc4)c4ccc(SC)cc4)CC3)c[nH]c12", "note": "[Example 63]", "EC50": "< 1000"}
{"smiles": "COc1ncc(OC)c2c(C(=O)C(=O)N3CCC(=C(c4ccccc4)c4ccc(F)cc4)CC3)c[nH]c12", "note": "[Example 64]", "EC50": "< 1000"}
{"smiles": "COc1ccccc1C(=C1CCN(C(=O)C(=O)c2c[nH]c3c(OC)ncc(OC)c23)CC1)c1ccccc1", "note": "[Example 65]", "EC50": "< 1000"}
{"smiles": "COc1ncc(OC)c2c(C(=O)C(=O)N3CCC(=C(c4ccccc4)c4cccc([N+](=O)[O-])c4)CC3)c[nH]c12", "note": "[Example 66]", "EC50": "< 1000"}
{"smiles": "COc1ncc(OC)c2c(C(=O)C(=O)N3CCC(=C(c4ccccc4)c4cccc(F)c4)CC3)c[nH]c12", "note": "[Example 67]", "EC50": "< 1000"}
{"smiles": "COc1ncc(OC)c2c(C(=O)C(=O)N3CCC(=C(c4ccccc4)c4cccc(SC)c4)CC3)c[nH]c12", "note": "[Example 68]", "EC50": "< 1000"}
{"smiles": "COc1cnc(-c2cnccn2)c2[nH]cc(C(=O)C(=O)N3CCC(=C(c4ccccc4)c4cnccn4)CC3)c12", "note": "[Example 70, 1-[4-(1-Phenyl-1-(pyrazinyl)-methylene)-piperidin-1-yl]-2-(4-methoxy-7-pyrazinyl-6-azaindol-3-yl)-ethane-1,2-dione]", "EC50": "< 1000"}
{"smiles": "COc1cnc(-c2cnccn2)c2[nH]cc(C(=O)C(=O)N3CCC(=C(c4ccccc4)c4cccnc4)CC3)c12", "note": "[Example 71, 1-[4-(1-Phenyl-1-(pyridin-3-yl)-methylene)-piperidin-1-yl]-2-(4-methoxy-7-pyrazinyl-6-azaindol-3-yl)-ethane-1,2-dione]", "EC50": "< 1000"}
{"smiles": "COc1cnc(-c2cnccn2)c2[nH]cc(C(=O)C(=O)N3CCC(=C(c4ccccc4)c4nnc(C)o4)CC3)c12", "note": "[Example 72, 1-[4-(1-Phenyl-1-(5-methyl-1,3,4-oxadiazol-2-yl)-methylene)-piperidin-1-yl]-2-(4-methoxy-7-pyrazinyl-6-azaindol-3-yl)-ethane-1,2-dione]", "EC50": "< 1000"}
{"smiles": "COc1cnc(-n2ccnn2)c2[nH]cc(C(=O)C(=O)N3CCC(=C(c4ccccc4)c4nnc(C)o4)CC3)c12", "note": "[Example 73, 1-[4-(1-Phenyl-1-(5-methyl-1,3,4-oxadiazol-2-yl)-methylene)-piperidin-1-yl]-2-[4-methoxy-7-(1,2,3-triazol-1-yl)-6-azaindol-3-yl]-ethane-1,2-dione]", "EC50": "< 1000"}
{"smiles": "CCc1nnc(C(=C2CCN(C(=O)C(=O)c3c[nH]c4c(-n5ccnn5)ncc(OC)c34)CC2)c2ccccc2)o1", "note": "[Example 74, 1-[4-(1-Phenyl-1-(5-ethyl-1,3,4-oxadiazol-2-yl)-methylene)-piperidin-1-yl]-2-[4-methoxy-7-(1,2,3-triazol-1-yl)-6-azaindol-3-yl]-ethane-1,2-dione]", "EC50": "< 1000"}
{"smiles": "COc1cnc(-n2ccnn2)c2[nH]cc(C(=O)C(=O)N3CCC(=C(c4ccccc4)c4nnc(C(C)C)o4)CC3)c12", "note": "[Example 75, 1-[4-(1-Phenyl-1-(5-isopropyl-1,3,4-oxadiazol-2-yl)-methylene)-piperidin-1-yl]-2-[4-methoxy-7-(1,2,3-triazol-1-yl)-6-azaindol-3-yl]-ethane-1,2-dione]", "EC50": "< 1000"}
{"smiles": "COc1cnc(-n2ccnn2)c2[nH]cc(C(=O)C(=O)N3CCC(=C(c4ccccc4)c4nnc(C5CC5)o4)CC3)c12", "note": "[Example 76, 1-[4-(1-Phenyl-1-(5-cyclopropyl-1,3,4-oxadiazol-2-yl)-methylene)-piperidin-1-yl]-2-[4-methoxy-7-(1,2,3-triazol-1-yl)-6-azaindol-3-yl]-ethane-1,2-dione]", "EC50": "< 1000"}
{"smiles": "COc1cnc(-n2ccnn2)c2[nH]cc(C(=O)C(=O)N3CCC(=C(c4ccccc4)c4nnc(O)o4)CC3)c12", "note": "[Example 77, 1-[4-(1-Phenyl-1-(5-hydroxy-1,3,4-oxadiazol-2-yl)-methylene)-piperidin-1-yl]-2-[4-methoxy-7-(1,2,3-triazol-1-yl)-6-azaindol-3-yl]-ethane-1,2-dione]", "EC50": "< 1000"}
{"smiles": "COc1cnc(-n2ccnn2)c2[nH]cc(C(=O)C(=O)N3CCC(=C(c4ccccc4)c4cccc(CO)c4)CC3)c12", "note": "[Example 78, 1-[4-(1-Phenyl-1-(3-hydroxymethylphenyl)-methylene)-piperidin-1-yl]-2-[4-methoxy-7-(1,2,3-triazol-1-yl)-6-azaindol-3-yl]-ethane-1,2-dione]", "EC50": "< 1000"}
{"smiles": "COc1cnc(-n2cncn2)c2[nH]cc(C(=O)C(=O)N3CCC(=C(c4ccccc4)c4nnc(C)o4)CC3)c12", "note": "[Example 79, 1-[4-(1-Phenyl-1-(5-methyl-1,3,4-oxadiazol-2-yl)-methylene)-piperidin-1-yl]-2-[4-methoxy-7-(1,2,4-triazol-1-yl)-6-azaindol-3-yl]-ethane-1,2-dione]", "EC50": "< 1000"}
{"smiles": "COc1cnc(-n2cnc(C)n2)c2[nH]cc(C(=O)C(=O)N3CCC(=C(c4ccccc4)c4nnc(C)o4)CC3)c12", "note": "[Example 80, 1-[4-(1-Phenyl-1-(5-methyl-1,3,4-oxadiazol-2-yl)-methylene)-piperidin-1-yl]-2-[4-methoxy-7-(3-methyl-1,2,4-triazol-1-yl)-6-azaindol-3-yl]-ethane-1,2-dione]", "EC50": "< 1000"}
{"smiles": "COc1cnc(-n2cnc(C)n2)c2[nH]cc(C(=O)C(=O)N3CCC(=C(c4ccccc4)c4nnc(C(C)C)o4)CC3)c12", "note": "[Example 81, 1-[4-(1-Phenyl-1-(5-isopropyl-1,3,4-oxadiazol-2-yl)-methylene)-piperidin-1-yl]-2-[4-methoxy-7-(3-methyl-1,2,4-triazol-1-yl)-6-azaindol-3-yl]-ethane-1,2-dione]", "EC50": "< 1000"}
{"smiles": "COc1cnc(-n2cnc(C)n2)c2[nH]cc(C(=O)C(=O)N3CCC(=C(c4ccccc4)c4nnc(C5CC5)o4)CC3)c12", "note": "[Example 82, 1-[4-(1-Phenyl-1-(5-cyclopropyl-1,3,4-oxadiazol-2-yl)-methylene)-piperidin-1-yl]-2-[4-methoxy-7-(3-methyl-1,2,4-triazol-1-yl)-6-azaindol-3-yl]-ethane-1,2-dione]", "EC50": "< 1000"}
{"smiles": "COc1cnc(-n2cnc(C)n2)c2[nH]cc(C(=O)C(=O)N3CCC(=C(c4ccccc4)c4nnc(O)o4)CC3)c12", "note": "[Example 83, 1-[4-(1-Phenyl-1-(5-hydroxy-1,3,4-oxadiazol-2-yl)-methylene)-piperidin-1-yl]-2-[4-methoxy-7-(3-methyl-1,2,4-triazol-1-yl)-6-azaindol-3-yl]-ethane-1,2-dione]", "EC50": "< 1000"}
